Residues, ends and D or L forms follow the SMILES beside them. *: point of attachment. Cbz = O=C(OCc1ccccc1)*
Key:
[1] = test system: HA-ANKRD16^CAST-transfected COS-7 cells; experiment: subcellular localization of ANKRD16 in transfected COS-7 cells; type: cell-based, monkey; conditions: for relocalization of ANKRD16: 10 μM MG132 or 10 μM epoximicin or 3-MA, 24 hours after transfection, within 12 hours of treatment
Protocol: Cellular localization of full-length ANKRD16 was determined by transfection of epitope-tagged full-length ANKRD16^CAST into monkey kidney fibroblast COS-7 cells and human alveolar epithelial A549 cells. The ANKRD16 coding sequence was amplified by polymerase chain reaction from cDNA by using Pfu DNA polymerase (Stratagene), purified by agarose gel electrophoresis and ligated in-frame with the HA-tag into the pcDNA3 vector. This clone encoded a fusion ANKRD16 with the tag at its C-terminus. All DNA constructs were confirmed by sequencing. COS-7 and A549 cells were maintained in Dulbecco's modified Eagle's medium (Sigma-Aldrich). All cells were grown at 37° C. in 5% CO2 and supplemented with 10% (vol/vol) fetal calf serum, 100 U/ml penicillin and 100 μg/ml streptomycin. Transfections were performed using Lipofectamine 2000 transfection reagent (Invitrogen, USA) according to the manufacturer's protocol. Cells were cultured for 48 h after transfection.
To determine if the induction of autophagy changes the intracellular localization of ANKRD16, we treated transfected cells with rapamycin to induce macroautophagy (data not shown) or performed serum starvation experiments (known to induce chaperone-mediated autophagy after 18 hours) on transfected cells (data not shown). COS-7 cells were transfected with full-length HA-ANKRD16^CAST constructs. […] Nor was co-localization observed with endosome, autophagosome or lysosome markers (data not shown) in the presence or absence of rapamycin or proteasome inhibitors administered as described below.
Several proteins that regulate protein folding and/or the disposal of misfolded proteins are induced or change their subcellular localization in response to misfolded protein stress. To examine if subcellular localization changes with intracellular accumulation of misfolded proteins, we treated full-length HA-ANKRD16^CAST-transfected COS-7 cells 24 hours after transfection with proteosome inhibitors, 10 μM MG132 (Sigma-Aldrich) or 10 μM epoximicin (Sigma-Aldrich) or blocked autophagy with 3-methyladenine (3-MA; Sigma-Aldrich). […]
For immunostaining the cells were fixed with 4% paraformaldehyde (PFA) at room temperature for 5 min, then incubated with anti-ubiquitin, anti-HA, anti-r-tubulin, and anti-vimentin antibodies overnight at 4° C. […] The fluorescence was detected under a fluorescence microscope.

[2] = test system: mouse embryonic fibroblasts from CASTEi/J mice; experiment: aggresome localization of ANKRD16 in fibroblasts under proteasomal stress; type: cell-based; conditions: 1 μM epoximicin for 18 hours
Protocol: Mouse embryonic fibroblasts were isolated from CASTEi/J mice. To isolate embryonic fibroblasts, CASTEi/J mice were paired for time of pregnancy. E13.5 day pregnant female mice for each of the strains were sacrificed. The time point E0.5 is the morning of finding a plug after pairing a female with a male. The uteri were removed and placed into a dish with PBS and washed. The embryos were isolated free of extraembryonic tissue and washed in PBS. Each embryo was placed into a separate 14 ml tube containing 3 ml of media (DMEM, 10% FBS) and homogenized for 2 seconds. The homogenized tissues were put into 145 mm tissue culture plates (e.g. CellStar from USA Scientific cat.#5663-9160) containing 20 ml of media (DMEM, 10% FBS). The cells were incubated at 37° C. in 5% CO2 until cells were confluent, which was on average from 5 to 7 days. The cells were expanded according to standard tissue culture methods using trypsin and the same passage number for each cell line was used for the experiment. To stress the fibroblast they were treated for 18 hours with 1 μM epoximicin, a proteosome inhibitor (Genaxxon). Then untreated and treated cells were fixed, visualized for ANKRD16 expression using indirect immunofluorescence with polyclonal ANKRD16 rabbit antibody as primary antibody and Alexa555-conjugated anti-rabbit IgG (Invitrogen, Molecular Probes) as secondary antibody. […]

SMILES | relocalization of ANKRD16 [1] | localization of ANKRD16 [2] | formation of the aggresome structure ([1]; 10 μg/ml nocodazole)
Cn1cnc(N)c2ncnc1-2 [3-methyladenine] | Relocalization of ANKRD16 to a juxtanuclear structure | – | –
CC(C)C[C@@H](C=O)NC(=O)[C@H](CC(C)C)NC(=O)[C@H](CC(C)C)NC(=O)OCc1ccccc1 [MG132] (Cbz-Leu-Leu-Leu-aldehyde) | Relocalization of ANKRD16 to a juxtanuclear structure | – | –
CC[C@H](C)[C@H](NC(=O)[C@H]([C@@H](C)CC)N(C)C(C)=O)C(=O)N[C@H](C(=O)N[C@@H](CC(C)C)C(=O)[C@@]1(C)CO1)[C@@H](C)O [epoximicin] | Relocalization of ANKRD16 to a juxtanuclear structure | relocalized to the aggresome | –
COC(=O)Nc1nc2ccc(C(=O)c3cccs3)cc2[nH]1 [nocodazole] | – | – | disrupted

Reference: patent US20100168016A1, “DIAGNOSIS AND TREATMENT OF DISEASES CAUSED BY MISFOLDED PROTEINS” (THE JACKSON LABORATORY, priority 2007, published 2010)
